According to ChEMBL document CHEMBL4342477, “Single Nucleotide Polymorphisms in the Melanocortin His-Phe-Arg-Trp Sequences Decrease Tetrapeptide Potency and Efficacy” (ACS Med Chem Lett, 2020):
Non-standard residues stand in square brackets, D forms with d. Residues, ends and D or L forms follow the SMILES beside them.

Legend:
Format in all cases: functional, cell-based
Melanocortin receptor 3 = Melanocortin receptor 3 (Mus musculus, UniProt P33033); experiment: Agonist activity at mouse melanocortin receptor 3 expressed in HEK293 cells assessed as stimulation of cAMP accumulation incubated for 2 hrs by cAMP Alpha-screen assay
Melanocortin receptor 4 = Melanocortin receptor 4 (Mus musculus, UniProt P56450); experiment: Agonist activity at mouse melanocortin receptor 4 expressed in HEK293 cells assessed as stimulation of cAMP accumulation incubated for 2 hrs by cAMP Alpha-screen assay
[1] = target: T1, Melanocyte-stimulating hormone receptor (Mus musculus, UniProt Q01727); experiment: Agonist activity at mouse melanocortin receptor 1 expressed in HEK293 cells assessed as stimulation of cAMP accumulation incubated for 2 hrs by cAMP AlphaScreen assay
Melanocortin receptor 5 = Melanocortin receptor 5 (Mus musculus, UniProt P41149); experiment: Agonist activity at mouse melanocortin receptor 5 expressed in HEK293 cells assessed as stimulation of cAMP accumulation incubated for 2 hrs by cAMP Alpha-screen assay
[2] = target: Melanocortin receptor 5 (Mus musculus) (UniProt P41149); experiment: Agonist activity at mouse melanocortin receptor 5 expressed in HEK293 cells assessed as stimulation of cAMP accumulation at 100 uM incubated for 2 hrs by cAMP Alpha-screen assay relative to control
[3] = target: Melanocortin receptor 3 (Mus musculus) (UniProt P33033); experiment: Agonist activity at mouse melanocortin receptor 3 expressed in HEK293 cells assessed as stimulation of cAMP accumulation at 100 uM incubated for 2 hrs by cAMP Alpha-screen assay relative to control
[4] = target: Melanocortin receptor 4 (Mus musculus) (UniProt P56450); experiment: Partial agonist activity at mouse melanocortin receptor 4 expressed in HEK293 cells assessed as stimulation of cAMP accumulation incubated for 2 hrs by cAMP Alpha-screen assay relative to NDP-MSH
[5] = target: Melanocortin receptor 3 (Mus musculus) (UniProt P33033); experiment: Partial agonist activity at mouse melanocortin receptor 3 expressed in HEK293 cells assessed as stimulation of cAMP accumulation incubated for 2 hrs by cAMP Alpha-screen assay relative to NDP-MSH
[6] = target: Melanocyte-stimulating hormone receptor (Mus musculus) (UniProt Q01727); experiment: Agonist activity at mouse melanocortin receptor 1 expressed in HEK293 cells assessed as fold decrease in potency of stimulation of cAMP accumulation incubated for 2 hrs by cAMP AlphaScreen assay
[7] = target: Melanocortin receptor 4 (Mus musculus) (UniProt P56450); experiment: Agonist activity at mouse melanocortin receptor 4 expressed in HEK293 cells assessed as fold decrease in potency of stimulation of cAMP accumulation incubated for 2 hrs by cAMP Alpha-screen assay
[8] = target: Melanocortin receptor 5 (Mus musculus) (UniProt P41149); experiment: Partial agonist activity at mouse melanocortin receptor 5 expressed in HEK293 cells assessed as stimulation of cAMP accumulation incubated for 2 hrs by cAMP Alpha-screen assay relative to NDP-MSH
[9] = target: T1, Melanocyte-stimulating hormone receptor; experiment: Agonist activity at mouse melanocortin receptor 1 expressed in HEK293 cells assessed as stimulation of cAMP accumulation incubated for 6 hrs by beta-galactosidase cAMP assay
[10] = target: Melanocortin receptor 4 (Mus musculus) (UniProt P56450); experiment: Agonist activity at mouse melanocortin receptor 4 expressed in HEK293 cells assessed as fold decrease in potency of stimulation of cAMP accumulation incubated for 2 hrs by cAMP Alpha-screen assay relative to Ac-His-DPhe-Arg-Trp-NH2
[11] = target: Melanocyte-stimulating hormone receptor (Mus musculus) (UniProt Q01727); experiment: Agonist activity at mouse melanocortin receptor 1 expressed in HEK293 cells assessed as stimulation of cAMP accumulation at 100 uM incubated for 2 hrs by cAMP AlphaScreen assay relative to control

T1 sequence (Q01727 whole entry): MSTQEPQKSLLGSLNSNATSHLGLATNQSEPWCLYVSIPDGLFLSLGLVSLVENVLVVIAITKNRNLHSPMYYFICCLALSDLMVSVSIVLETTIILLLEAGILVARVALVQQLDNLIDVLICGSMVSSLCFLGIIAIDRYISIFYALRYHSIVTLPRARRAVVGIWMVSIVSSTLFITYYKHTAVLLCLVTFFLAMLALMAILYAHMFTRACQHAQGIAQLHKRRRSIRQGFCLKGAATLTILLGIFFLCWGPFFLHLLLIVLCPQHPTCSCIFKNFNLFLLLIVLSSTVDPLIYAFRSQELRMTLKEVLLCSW
Chain of Melanocortin receptor 5 (Mus musculus) (P41149 whole entry): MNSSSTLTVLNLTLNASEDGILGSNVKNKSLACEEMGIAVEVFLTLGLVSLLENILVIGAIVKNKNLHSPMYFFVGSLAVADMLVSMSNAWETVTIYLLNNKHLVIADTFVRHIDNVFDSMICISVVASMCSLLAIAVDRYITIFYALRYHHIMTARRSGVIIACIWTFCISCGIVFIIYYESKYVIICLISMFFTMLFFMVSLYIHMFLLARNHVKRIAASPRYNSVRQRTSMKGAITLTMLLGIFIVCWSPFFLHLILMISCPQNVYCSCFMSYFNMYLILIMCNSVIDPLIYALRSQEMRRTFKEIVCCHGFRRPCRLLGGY
Chain of Melanocortin receptor 5 (P41149 whole entry): as above
Chain of Melanocortin receptor 3 (P33033 whole entry): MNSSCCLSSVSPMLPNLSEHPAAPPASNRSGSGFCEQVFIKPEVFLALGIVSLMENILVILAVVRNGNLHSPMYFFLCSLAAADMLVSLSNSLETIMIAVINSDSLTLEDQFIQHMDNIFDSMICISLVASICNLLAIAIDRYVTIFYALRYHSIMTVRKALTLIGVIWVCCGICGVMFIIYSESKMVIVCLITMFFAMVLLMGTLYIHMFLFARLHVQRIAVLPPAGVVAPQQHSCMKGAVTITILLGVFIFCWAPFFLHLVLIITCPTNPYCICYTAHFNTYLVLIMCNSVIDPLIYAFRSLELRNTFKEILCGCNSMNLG
Chain of Melanocortin receptor 3 (Mus musculus) (P33033 whole entry): as above
Chain of Melanocortin receptor 4 (P56450 whole entry): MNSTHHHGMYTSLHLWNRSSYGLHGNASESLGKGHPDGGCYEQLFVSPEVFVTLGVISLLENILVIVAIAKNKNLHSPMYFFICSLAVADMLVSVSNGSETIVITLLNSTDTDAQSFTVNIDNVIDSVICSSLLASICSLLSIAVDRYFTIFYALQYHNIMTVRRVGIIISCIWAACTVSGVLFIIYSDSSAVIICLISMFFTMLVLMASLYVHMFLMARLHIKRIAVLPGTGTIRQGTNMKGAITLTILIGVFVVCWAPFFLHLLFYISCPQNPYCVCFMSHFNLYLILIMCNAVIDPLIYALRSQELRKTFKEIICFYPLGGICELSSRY
Chain of Melanocortin receptor 4 (Mus musculus) (P56450 whole entry): as above
Chain of Melanocyte-stimulating hormone receptor (Mus musculus) (Q01727 whole entry, looked up): as the sequence (Q01727 whole entry) above

In the case of `CC(=O)N[C@@H](Cc1cnc[nH]1)C(=O)N[C@H](C(=O)N[C@@H](CCCNC(=N)N)C(=O)N[C@@H](Cc1c[nH]c2ccccc12)C(N)=O)C(C)C` (Ac-HVRW-NH2), the EC50 (Melanocortin receptor 3) is reported as greater than 100000 nM, the EC50 (Melanocortin receptor 4) is reported as greater than 100000 nM and the EC50 [1] is reported as greater than 100000 nM. For the same compound, the EC50 (Melanocortin receptor 5) was greater than 100000 nM.

Work on `CC(=O)N[C@@H](Cc1cnc[nH]1)C(=O)N[C@H](Cc1ccccc1)C(=O)N[C@@H](CCCNC(=N)N)C(=O)N[C@@H](CCCNC(=N)N)C(N)=O` yielded an EC50 (Melanocortin receptor 3) greater than 100000 nM, an EC50 (Melanocortin receptor 4) greater than 100000 nM and an EC50 [1] of 900 nM. The Emax [2] was 20%.

`CC(=O)N[C@@H](Cc1cnc[nH]1)C(=O)N[C@H](Cc1ccccc1)C(=O)N[C@@H](CC(C)C)C(=O)N[C@@H](Cc1c[nH]c2ccccc12)C(N)=O` was tested, and the EC50 (Melanocortin receptor 4) was 3800 nM, the Emax [3] was 25% and the EC50 [1] was 90 nM. The EC50 (Melanocortin receptor 5) was 2000 nM and the Emax [4] was 85%.

`CC(=O)N[C@@H](Cc1c[nH]cn1)C(=O)N[C@@H](Cc1ccccc1)C(=O)N[C@@H](CCCN=C(N)N)C(=O)N[C@@H](Cc1c[nH]c2ccccc12)C(N)=O` was tested, and the EC50 (Melanocortin receptor 5) was 220 nM.

`CC(=O)N[C@@H](Cc1cnc[nH]1)C(=O)N[C@H](Cc1ccccc1)C(=O)N[C@@H](CS)C(=O)N[C@@H](Cc1c[nH]c2ccccc12)C(N)=O` showed an EC50 (Melanocortin receptor 3) of 6000 nM, an EC50 (Melanocortin receptor 4) of 3100 nM and an EC50 [1] of 400 nM. For the same compound, the Emax [5] was 85%, the fold change (FC) [6] was 25 and the fold change (FC) [7] was 140. It also gave an EC50 (Melanocortin receptor 5) of 1700 nM.

In the case of `CC(=O)N[C@@H](Cc1cnc[nH]1)C(=O)N[C@H](Cc1ccccc1)C(=O)N[C@@H](CCCN=C(N)N)C(=O)N[C@@H](Cc1c[nH]c2ccccc12)C(N)=O`, the EC50 (Melanocortin receptor 4) is reported as 21 nM and the EC50 (Melanocortin receptor 5) is reported as 11 nM.

For `CC(=O)N1CCC[C@H]1C(=O)N[C@H](Cc1ccccc1)C(=O)N[C@@H](CCCN=C(N)N)C(=O)N[C@@H](Cc1c[nH]c2ccccc12)C(N)=O` (Ac-P[dF]RW-NH2), the EC50 (Melanocortin receptor 4) was 1000 nM, the Emax [8] was 80% and the EC50 [1] was 2100 nM. It also gave an EC50 [9] of 4000 nM, an EC50 (Melanocortin receptor 5) of 2000 nM and an Emax [4] of 60%.

`CC(=O)N[C@@H](Cc1ccc(O)cc1)C(=O)N[C@H](Cc1ccccc1)C(=O)N[C@@H](CCCNC(=N)N)C(=O)N[C@@H](Cc1c[nH]c2ccccc12)C(N)=O` (Ac-Y[dF]RW-NH2) gave an EC50 (Melanocortin receptor 3) of 3000 nM, an EC50 (Melanocortin receptor 4) of 90 nM and an Emax [8] of 80%. For the same compound, the EC50 [1] was 1200 nM, the Emax [5] was 50% and the EC50 (Melanocortin receptor 5) was 400 nM. For the same compound, the Emax [4] was 65%.

In the case of `CC(=O)N[C@@H](Cc1cnc[nH]1)C(=O)N[C@H](Cc1ccccc1)C(=O)N[C@@H](CCCNC(=N)N)C(=O)N[C@@H](CO)C(N)=O`, the EC50 (Melanocortin receptor 4) is reported as greater than 100000 nM, the Emax [3] is reported as 50% and the EC50 [1] is reported as 1600 nM. It also gave an Emax [2] of 75%.

`CC(=O)N[C@@H](Cc1cnc[nH]1)C(=O)N[C@H](Cc1ccccc1)C(=O)N[C@@H](CCCNC(=N)N)C(=O)N[C@@H](CC(C)C)C(N)=O` gave an EC50 (Melanocortin receptor 4) greater than 100000 nM, an Emax [3] of 20% and an EC50 [1] of 1600 nM. For the same compound, the Emax [2] was 40%.

`CC(=O)N[C@@H](Cc1cnc[nH]1)C(=O)N[C@H](Cc1ccccc1)C(=O)N[C@@H](CCCNC(=N)N)C(=O)N[C@@H](Cc1c[nH]c2ccccc12)C(N)=O` was tested, and the Emax [3] was 30%.

With `CC(=O)N[C@@H](CCC(N)=O)C(=O)N[C@H](Cc1ccccc1)C(=O)N[C@@H](CCCNC(=N)N)C(=O)N[C@@H](Cc1c[nH]c2ccccc12)C(N)=O` the EC50 (Melanocortin receptor 3) was 1300 nM, the EC50 (Melanocortin receptor 4) was 270 nM and the fold change (FC) [10] was 10. For the same compound, the EC50 [1] was 1600 nM, the Emax [5] was 80% and the EC50 (Melanocortin receptor 5) was 270 nM. For the same compound, the Emax [4] was 80%.

With `CC(=O)N[C@@H](Cc1cnc[nH]1)C(=O)N[C@H](Cc1ccccc1)C(=O)N[C@@H](Cc1cnc[nH]1)C(=O)N[C@@H](Cc1c[nH]c2ccccc12)C(N)=O` the EC50 (Melanocortin receptor 3) was 4000 nM, the EC50 (Melanocortin receptor 4) was 500 nM and the EC50 [1] was 1300 nM. For the same compound, the Emax [5] was 85% and the EC50 (Melanocortin receptor 5) was 300 nM.

Compound `CC(=O)N[C@@H](Cc1cnc[nH]1)C(=O)N[C@H](Cc1ccccc1)C(=O)N[C@@H](CCCNC(=N)N)C(=O)NCC(N)=O` has an EC50 (Melanocortin receptor 3) greater than 100000 nM, an EC50 (Melanocortin receptor 4) greater than 100000 nM and an EC50 [1] of 1300 nM. The EC50 (Melanocortin receptor 5) was greater than 100000 nM.

In the case of `CC(=O)N[C@@H](Cc1cnc[nH]1)C(=O)N[C@@H](CC(C)C)C(=O)N[C@@H](CCCNC(=N)N)C(=O)N[C@@H](Cc1c[nH]c2ccccc12)C(N)=O` (Ac-HLRW-NH2), the EC50 (Melanocortin receptor 3) is reported as greater than 100000 nM, the Emax [11] is reported as 25% and the EC50 (Melanocortin receptor 4) is reported as greater than 100000 nM. The Emax [2] was 25%.
